# Measured values reported in article PMC10482825 (Scientific Reports, 2023).
# Where a SMILES comes first, the peptide text is derived from it.
# Assays:
# B. subtilis = assay type: cell-based, Bacillus subtilis (ATCC, 11774); conditions: micro-broth dilution, 3 h peptide treatment then MHB 18 h, 37 °C, OD 600 nm
# Source text: (§1) The microbial strains used in this study were Bacillus subtilis (ATCC, 11774), Candida albicans (TIMM, 1768), Enterococcus faecalis (ATCC, 33186), Escherichia coli (ATCC, 11775), Klebsiella pneumoniae (ATCC, 13883), Methicillin-resistant Staphylococcus aureus (ATCC, BAA-41), Pseudomonas aeruginosa (ATCC, 10145), Salmonella enterica (ATCC, 14028), Serratia marcescens (ATCC, 13880), Staphylococcus aureus (ATCC, 25923) and Vibrio parahaemolyticus (ATCC, 17802). All microbial strains were cultivated overnight at 37 °C and 200 rpm, then subcultured and incubated for 3 h under the same incubation conditions to obtain the mid-logarithmic growth phase. The cultivated cells were washed twice with 10 mM Tris–HCl containing 5 mM D-glucose at pH 7.4 and suspended in the same buffer to be used in different assays, as previously described.
# (§2) As a conclusive quantitative assessment, broth microtiter assay was used to determine the MIC values of each cryptide against B. subtilis, MRSA, S. enterica, P. aeruginosa, V. parahaemolyticus and C. albicans by following the guidelines of the Clinical and Laboratory Standards Institute (CLSI)[67], with slight modifications. Eighty microliters of 5 × 10^4 CFU/ml of each pathogen were dispensed into a 96-well polypropylene microtiter plate. The wells were then treated with 20 µl of serially diluted cryptides for 3 h at 37 °C. Gentamicin was used for positive controls at 0.2 mg/ml while an equivalent volume of acidified water was used for negative controls. The plates were then topped up with a final concentration of 1 × Mueller Hinton Broth (MHB) and incubated for 18 h under the same incubation conditions. MIC was detected as the lowest concentration of each cryptide that prevents the optically detectable microbial growth at OD = 600 nm.
# MRSA [1] = assay type: cell-based, Methicillin-resistant Staphylococcus aureus (ATCC, BAA-41); conditions: micro-broth dilution, 3 h peptide treatment then MHB 18 h, 37 °C, OD 600 nm
# Source text: as §1, §2
# RD = assay type: cell-based; conditions: 24 h, serum-free medium, MTT, 37 °C, 5% CO2; mean ± SD
# Method in brief: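 Cells grown to 75–80% confluency were treated 24 h with various cryptide concentrations in serum-free DMEM at 37 °C. Viability measured by MTT, normalised to negative controls and referenced to zero-time viability to offset serum-deprivation effects.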
# human RBCs = assay: Hemolytic assay; assay type: cell-based; conditions: 2% RBCs in PBS, 2 h, 37 °C, supernatant at 450 nm, 0.1% TritonX-100 = maximum; highest tested concentration 100 µM
# Procedure: All methods were carried out in accordance with the Declaration of Helsinki, and the Research Ethics Committee approved all experimental protocols at Sunway University (approval no. PGSUREC2020/005). A human blood sample was collected from a healthy person for this assay upon obtaining informed consent. The fresh blood sample was centrifuged at 3700 g for 5 min at RT. The supernatant (serum) was removed and red blood cells (RBCs) were washed three times with 1X PBS and diluted to a final concentration of 2% (PBS—137 mM NaCl, 2.7 mM KCl, 10 mM Na2HPO4, 1.76 mM KH2PO4). Cells were stored at 4 °C, and used within 5 h.
# The hemolytic activities of the identified cryptides were evaluated as previously described. The prepared RBCs were treated with different peptide concentrations for 2 h at 37 °C. The treated RBCs were centrifuged, under the same centrifugation conditions, and the supernatants were transferred to a 96-well plate and measured at 450 nm.
# MRSA [2] = assay type: cell-based, Methicillin-resistant Staphylococcus aureus (ATCC, BAA-41); conditions: 20 µl of wells without growth on agar, 18 h, 37 °C
# S. enterica = assay type: cell-based, Salmonella enterica (ATCC, 14028); conditions: 20 µl of wells without growth on agar, 18 h, 37 °C
# P. aeruginosa = assay: Radial diffusion assay; assay type: cell-based, Pseudomonas aeruginosa (ATCC, 10145); conditions: 5 µl of 500 µM per 3 mm well, 37 °C, mean ± SD
# Source text: as §1
# (§3) The antimicrobial activity spectra of the selected cryptides were screened against all the mentioned microbial pathogens, except V. parahaemolyticus, by radial diffusion assay as previously described, with slight modifications. […] The plates were then incubated for 18 h, and the antimicrobial activities were measured in the absolute unit (AU), as previously described. […]
# (§4) plate. The plates were then incubated for 12 h at 37 °C and antimicrobial activities were measured in the term of absolute unit (A.U). […]
# C. albicans = assay: Radial diffusion assay; assay type: cell-based, Candida albicans (TIMM, 1768); conditions: 5 µl of 500 µM per 3 mm well, 37 °C, mean ± SD
# Source text: as §1, §3, §4
Molecule,MIC (µM) B. subtilis (B. subtilis),MIC (µM) MRSA (MRSA [1]),IC50 (RD),Hemolysis of human RBCs at 100 µM (human RBCs),MBC (µM) MRSA (MRSA [2]),MBC (µM) S. enterica (S. enterica),Antimicrobial activity (inhibition zone) P. aeruginosa (P. aeruginosa),Antifungal activity (inhibition zone) C. albicans (C. albicans)
CC(C)C[C@H](NC(=O)[C@H](CCCNC(=N)N)NC(=O)[C@H](Cc1c[nH]c2ccccc12)NC(=O)[C@H](CCCNC(=N)N)NC(=O)[C@H](CC(C)C)NC(=O)[C@@H](N)Cc1ccccc1)C(=O)N[C@@H](CCCCN)C(=O)N[C@@H](Cc1ccccc1)C(=O)N[C@@H](CCCCN)C(=O)N[C@@H](CO)C(=O)N[C@@H](CCCCN)C(=O)N[C@H](C(=O)N[C@@H](Cc1c[nH]c2ccccc12)C(=O)N[C@@H](CS)C(=O)N1CCC[C@H]1C(=O)O)C(C)C [AD7] (H-FLRWRLKFKSKVWCP-OH),0.39 µM,3.12 µM,97.8 ± 0.2 µM,26.5%,3.12 µM,0.78 µM,,
CSCC[C@H](NC(=O)[C@H](CCCCN)NC(=O)CNC(=O)[C@H](CCCCN)NC(=O)[C@H](Cc1ccc(O)cc1)NC(=O)[C@H](CC(N)=O)NC(=O)[C@H](CC(C)C)NC(=O)[C@H](CCC(N)=O)NC(=O)[C@H](CC(C)C)NC(=O)[C@@H](N)CCCNC(=N)N)C(=O)N[C@@H](Cc1c[nH]c2ccccc12)C(=O)N[C@@H](CS)C(=O)N1CCC[C@H]1C(=O)NCC(=O)N[C@@H](Cc1c[nH]c2ccccc12)C(=O)O [AD11] (H-RLQLNYKGKMWCPGW-OH),0.78 µM,6.25 µM,19.2 ± 0.9 µM,20.7%,12.5 µM,1.56 µM,,
"RHCLRSKRPPNVCPH [AD4, cationic cryptide from P. vannamei precursor DN34505 (Pl-crustin 2), chemically synthesised]",1.56 µM,6.25 µM,15 ± 0.8 µM,,12.5 µM,3.12 µM,0 A.U.,2.1 ± 0.5 A.U.
